Measured values taken from ChEMBL document CHEMBL1201862, “PubChem BioAssay data set” (2004).
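Briefly, cells in 96-well plates were exposed to five compound concentrations for 48 h, and endpoints were estimated by linear interpolation. The concentration for 50% growth inhibition is given as GI50.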 The source made the active and inactive calls. No stated cut-off is given here; in the data, active = GI50 up to about 1.1 µM and inactive = higher. Where a SMILES comes first, the peptide text is derived from it. The star is where a group is joined. Fmoc = O=C(OCC1c2ccccc2-c2ccccc21)*; Boc = CC(C)(C)OC(=O)*

Experiments:
Experiment in all cases: inhibition of tumour cell growth, NCI panel, 48 h
A549 = system: A549
ACHN = system: ACHN
BT-549 = system: BT-549
CAKI-1 = system: CAKI-1
CCRF-CEM = system: CCRF-CEM
COLO 205 = system: COLO 205
DU-145 = system: DU-145
EKVX = system: EKVX
HCT-116 = system: HCT-116
HCT-15 = system: HCT-15
HL-60 = system: HL-60
HOP-62 = system: HOP-62
HT-29 = system: HT-29
Hs-578T = system: Hs-578T
IGROV-1 = system: IGROV-1
K562 = system: K562
KM12 = system: KM12
LOX IMVI = system: LOX IMVI
M14 = system: M14
MCF7 = system: MCF7
MDA-MB-231 = system: MDA-MB-231
MDA-MB-435 = system: MDA-MB-435
MDA-N = system: MDA-N
MOLT-4 = system: MOLT-4
Malme-3M = system: Malme-3M
NCI-H23 = system: NCI-H23
NCI-H460 = system: NCI-H460
NCI/ADR-RES = system: NCI/ADR-RES
OVCAR-3 = system: OVCAR-3
OVCAR-4 = system: OVCAR-4
OVCAR-5 = system: OVCAR-5
OVCAR-8 = system: OVCAR-8
PC-3 = system: PC-3
RPMI-8226 = system: RPMI-8226
RXF 393 = system: RXF 393
SF-268 = system: SF-268
SF-295 = system: SF-295
SF-539 = system: SF-539
SK-MEL-28 = system: SK-MEL-28
SK-MEL-5 = system: SK-MEL-5
SK-OV-3 = system: SK-OV-3
SN12C = system: SN12C
SNB-19 = system: SNB-19
SNB-75 = system: SNB-75
SR = system: SR
SW-620 = system: SW-620
T47D = system: T47D
TK-10 = system: TK-10
U-251 = system: U-251
UACC-257 = system: UACC-257
UACC-62 = system: UACC-62
UO-31 = system: UO-31
786-0 = system: 786-0
HCC 2998 = system: HCC 2998
HOP-92 = system: HOP-92
NCI-H226 = system: NCI-H226
SK-MEL-2 = system: SK-MEL-2
A498 = system: A498
NCI-H522 = system: NCI-H522

Measured: GI50

COc1ccc(-c2c3c(nc4nc(SCC(=O)c5ccc(Br)cc5)nc(N)c24)CCCC3)cc1OC
> 100 µM: HCT-15
inactive: A549 > 100 µM | ACHN > 100 µM | BT-549 80 µM | CAKI-1 79.6 µM | CCRF-CEM > 100 µM | COLO 205 > 100 µM | DU-145 > 100 µM | EKVX 84.1 µM | HCT-116 > 100 µM | HL-60 90.6 µM | HOP-62 58.6 µM | HT-29 41.4 µM | Hs-578T 15.3 µM | IGROV-1 > 100 µM | K562 > 100 µM | KM12 > 100 µM | LOX IMVI > 100 µM | M14 41.9 µM | MCF7 > 100 µM | MDA-MB-231 26.9 µM | MDA-MB-435 > 100 µM | MDA-N > 100 µM | MOLT-4 > 10 µM | Malme-3M 42.6 µM | NCI-H23 > 100 µM | NCI-H460 > 100 µM | NCI/ADR-RES 74.5 µM | OVCAR-3 > 100 µM | OVCAR-4 33.7 µM | OVCAR-5 > 100 µM | OVCAR-8 33.5 µM | PC-3 > 100 µM | RPMI-8226 64.1 µM | RXF 393 19.3 µM | SF-268 71.9 µM | SF-295 > 100 µM | SF-539 > 100 µM | SK-MEL-28 64 µM | SK-MEL-5 10.1 µM | SK-OV-3 30.5 µM | SN12C > 100 µM | SNB-19 > 100 µM | SNB-75 14.9 µM | SR > 100 µM | SW-620 74.5 µM | T47D 73.6 µM | TK-10 > 100 µM | U-251 > 100 µM | UACC-257 > 100 µM | UACC-62 > 100 µM | UO-31 > 100 µM

CC(C)(C)OC(=O)NCCCCC(NC(=O)C(Cc1c[nH]c2ccccc12)NC(=O)OCC1c2ccccc2-c2ccccc21)C(=O)O (stereo unspecified) (Fmoc-Trp-Lys(Boc)-OH; configuration not given here)
> 100 µM: HCT-15
inactive: 786-0 80 µM | A549 > 100 µM | ACHN > 100 µM | BT-549 35.6 µM | CAKI-1 17.1 µM | CCRF-CEM 24.7 µM | COLO 205 64.7 µM | DU-145 76.4 µM | EKVX > 100 µM | HCC 2998 40.6 µM | HCT-116 32 µM | HL-60 15.5 µM | HOP-62 39.5 µM | HOP-92 23.8 µM | HT-29 40.5 µM | Hs-578T 30.3 µM | IGROV-1 52.2 µM | K562 18.8 µM | KM12 47.8 µM | LOX IMVI 21.6 µM | M14 77.3 µM | MCF7 22.9 µM | MDA-MB-231 27.5 µM | MDA-MB-435 49.5 µM | MDA-N 35.9 µM | MOLT-4 19.8 µM | Malme-3M 47.8 µM | NCI-H226 43.7 µM | NCI-H23 31 µM | NCI-H460 34.7 µM | NCI/ADR-RES > 100 µM | OVCAR-3 18.2 µM | OVCAR-4 33.7 µM | OVCAR-5 > 100 µM | OVCAR-8 44.4 µM | PC-3 34.8 µM | RPMI-8226 25 µM | RXF 393 59.4 µM | SF-268 32.5 µM | SF-295 62.7 µM | SF-539 42.3 µM | SK-MEL-28 26.3 µM | SK-MEL-2 23.1 µM | SK-MEL-5 90.2 µM | SK-OV-3 5 µM | SN12C 52.2 µM | SNB-19 27.3 µM | SNB-75 55 µM | SR 21.9 µM | SW-620 48.3 µM | T47D 54.7 µM | TK-10 > 100 µM | U-251 17.1 µM | UACC-257 79.3 µM | UACC-62 20.9 µM | UO-31 68.7 µM

NC(Cc1ccc(S(=O)(=O)O)cc1)C(=O)NC(Cc1ccc(S(=O)(=O)O)cc1)C(=O)NC(Cc1ccc(S(=O)(=O)O)cc1)C(=O)NC(Cc1ccc(S(=O)(=O)O)cc1)C(=O)O (stereo unspecified)
inactive: 786-0 > 100 µM | A498 > 100 µM | A549 > 100 µM | ACHN > 100 µM | BT-549 > 100 µM | CAKI-1 > 100 µM | CCRF-CEM > 100 µM | COLO 205 > 100 µM | DU-145 > 100 µM | EKVX > 100 µM | HCC 2998 > 100 µM | HCT-116 > 100 µM | HL-60 > 10 µM | HOP-62 > 100 µM | HT-29 > 100 µM | Hs-578T > 100 µM | IGROV-1 > 100 µM | KM12 3.92 µM | LOX IMVI > 100 µM | M14 > 100 µM | MCF7 46.1 µM | MDA-MB-231 > 100 µM | MDA-MB-435 > 100 µM | MDA-N > 100 µM | MOLT-4 > 100 µM | Malme-3M 68.5 µM | NCI-H226 > 100 µM | NCI-H23 > 100 µM | NCI-H460 > 100 µM | NCI-H522 > 100 µM | NCI/ADR-RES > 100 µM | OVCAR-3 > 100 µM | OVCAR-4 > 100 µM | OVCAR-5 > 100 µM | OVCAR-8 > 100 µM | PC-3 > 100 µM | RPMI-8226 > 100 µM | RXF 393 > 100 µM | SF-268 > 100 µM | SF-295 > 100 µM | SF-539 > 100 µM | SK-MEL-28 > 100 µM | SK-MEL-2 > 100 µM | SK-MEL-5 > 100 µM | SK-OV-3 > 100 µM | SN12C > 100 µM | SNB-75 > 100 µM | SW-620 > 100 µM | T47D > 100 µM | TK-10 > 100 µM | U-251 > 100 µM | UACC-257 > 100 µM | UACC-62 > 100 µM | UO-31 > 100 µM
> 100 µM: HCT-15

S=C1CC(c2ccccc2)Sc2ccc(Cl)cc2N1 (stereo unspecified)
32.7 µM: HCT-15
inactive: 786-0 24.3 µM | A549 34.8 µM | ACHN 58.1 µM | BT-549 19.9 µM | CAKI-1 63.7 µM | CCRF-CEM > 100 µM | COLO 205 63.7 µM | DU-145 42.9 µM | EKVX 50.7 µM | HCT-116 21.2 µM | HL-60 24.4 µM | HOP-62 45.6 µM | HT-29 60.7 µM | Hs-578T 16.4 µM | IGROV-1 90.8 µM | K562 16.2 µM | KM12 56.6 µM | LOX IMVI > 100 µM | M14 37.4 µM | MCF7 36.2 µM | MDA-MB-231 47.9 µM | MDA-MB-435 13.4 µM | MDA-N 38.8 µM | MOLT-4 18.7 µM | Malme-3M > 100 µM | NCI-H226 > 100 µM | NCI-H23 30.8 µM | NCI-H460 21.2 µM | NCI-H522 25.8 µM | NCI/ADR-RES 86.3 µM | OVCAR-3 46.5 µM | OVCAR-4 54.5 µM | OVCAR-5 > 100 µM | OVCAR-8 43.4 µM | PC-3 4.56 µM | RPMI-8226 90.4 µM | RXF 393 2.99 µM | SF-268 37.9 µM | SF-295 26.9 µM | SK-MEL-28 41.1 µM | SK-MEL-5 22 µM | SK-OV-3 56.6 µM | SN12C 94 µM | SNB-19 34 µM | SNB-75 30 µM | SR 20.8 µM | T47D 59.3 µM | TK-10 36.8 µM | U-251 16.5 µM | UACC-257 18.1 µM | UACC-62 48.1 µM | UO-31 71.3 µM

Cc1c(O)c(=O)ccn1CCc1ccc(O)cc1
active: UACC-62 0.615 µM
4.82 µM: HCT-15
inactive: 786-0 6.32 µM | A549 32.9 µM | ACHN 13.9 µM | BT-549 > 100 µM | CAKI-1 4.52 µM | CCRF-CEM 10 µM | COLO 205 31.5 µM | DU-145 24.9 µM | EKVX 20.4 µM | HCT-116 35.7 µM | HL-60 33.5 µM | HOP-62 22.1 µM | HOP-92 24.3 µM | HT-29 20.4 µM | Hs-578T 24.3 µM | K562 32.7 µM | KM12 41.3 µM | LOX IMVI 20.5 µM | M14 17.3 µM | MCF7 23.9 µM | MDA-MB-231 2.2 µM | MDA-MB-435 42.2 µM | MDA-N 11.9 µM | MOLT-4 26.8 µM | Malme-3M 22.5 µM | NCI-H23 35.7 µM | NCI-H460 17.1 µM | NCI/ADR-RES 8.71 µM | OVCAR-3 11.2 µM | OVCAR-4 22 µM | OVCAR-5 30 µM | OVCAR-8 31.3 µM | PC-3 25.9 µM | RPMI-8226 14.7 µM | SF-268 9.51 µM | SF-295 24.3 µM | SF-539 29.4 µM | SK-MEL-28 38.4 µM | SK-MEL-5 21.3 µM | SK-OV-3 24.8 µM | SNB-19 15.6 µM | SR 34.6 µM | SW-620 44.8 µM | T47D 45.6 µM | TK-10 15.8 µM | U-251 13.9 µM | UACC-257 25.5 µM
